The values below come from paper PMC2804269 (Bioconjugate chemistry, 2009).

In data set [1] the target is integrin αvβ3 (Homo sapiens) (UniProt P06756). As to conditions: cited from earlier work.
The test system of data set [2] is U87MG tumor bearing mice. Briefly: Static microPET imaging quantification. It is filed as in vivo, mouse. As to conditions: quantification of microPET images.
Data set [3] has as its system U87MG tumor bearing mice. The experiment in a line: Dynamic microPET scan of U87MG tumor-bearing mouse. It is filed as in vivo. The settings on record: 35 min p.i., ROI analysis of the heart.
Data set [4] can be described thus: Biodistribution in nude mice bearing U87MG xenografts. It is filed as in vivo, mouse. As to conditions: nude, mouse, iv, 740 KBq (20 uCi), total radioactivity, 0.5 h p.i., n = 3.
Data set [5] has as its system U87MG tumor bearing mice. Described as above. It is filed as in vivo, mouse. The settings on record: 330 μg c(RGDyK), 0.5 h p.i., P < 0.05.
The target of data set [6] is αvβ3 integrin. The settings on record: binding to αvβ3 integrin; cited from earlier work.

As usually defined, the Kd is the free concentration of one partner at which half of the binding sites on the other are occupied at equilibrium, for simple one-to-one binding. The term tissue uptake denotes the percentage of the injected dose found per gram of tissue.

Bridge positions count the residues as written; N and C are the ends. Peptide text beside a SMILES is read from it. * marks the point of attachment. Benzoyl(4-F) = O=C(c1ccc(F)cc1)*

UniProt P06756, sequence (P06756 31-1048, chain 1 of 2): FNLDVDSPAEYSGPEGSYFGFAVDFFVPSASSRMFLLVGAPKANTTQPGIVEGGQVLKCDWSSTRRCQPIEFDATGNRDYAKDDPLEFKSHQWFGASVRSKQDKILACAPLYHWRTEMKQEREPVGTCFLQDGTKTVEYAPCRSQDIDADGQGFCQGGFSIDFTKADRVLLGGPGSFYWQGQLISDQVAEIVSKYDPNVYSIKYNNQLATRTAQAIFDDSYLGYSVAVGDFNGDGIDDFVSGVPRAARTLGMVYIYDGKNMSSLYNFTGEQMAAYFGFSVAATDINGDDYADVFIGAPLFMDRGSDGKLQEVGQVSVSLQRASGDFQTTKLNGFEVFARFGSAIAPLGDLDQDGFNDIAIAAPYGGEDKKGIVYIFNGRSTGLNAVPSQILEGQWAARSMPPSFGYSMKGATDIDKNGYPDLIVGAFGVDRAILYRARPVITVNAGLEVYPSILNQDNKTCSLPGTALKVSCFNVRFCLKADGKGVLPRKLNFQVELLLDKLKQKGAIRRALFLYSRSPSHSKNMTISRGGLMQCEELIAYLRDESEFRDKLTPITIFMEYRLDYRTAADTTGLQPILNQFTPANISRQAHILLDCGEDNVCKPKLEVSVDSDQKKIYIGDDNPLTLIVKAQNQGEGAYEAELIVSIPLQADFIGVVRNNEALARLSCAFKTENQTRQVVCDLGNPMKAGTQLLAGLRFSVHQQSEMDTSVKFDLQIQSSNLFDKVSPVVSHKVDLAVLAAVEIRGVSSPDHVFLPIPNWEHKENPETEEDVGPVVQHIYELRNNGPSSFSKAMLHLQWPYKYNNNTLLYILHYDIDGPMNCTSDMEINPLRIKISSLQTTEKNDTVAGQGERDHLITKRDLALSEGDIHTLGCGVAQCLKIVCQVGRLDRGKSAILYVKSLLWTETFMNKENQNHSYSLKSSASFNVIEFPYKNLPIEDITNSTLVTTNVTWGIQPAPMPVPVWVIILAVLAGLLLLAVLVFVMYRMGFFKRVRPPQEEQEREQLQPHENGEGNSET
UniProt P06756, sequence (P05106 27-788, chain 2 of 2, further chain): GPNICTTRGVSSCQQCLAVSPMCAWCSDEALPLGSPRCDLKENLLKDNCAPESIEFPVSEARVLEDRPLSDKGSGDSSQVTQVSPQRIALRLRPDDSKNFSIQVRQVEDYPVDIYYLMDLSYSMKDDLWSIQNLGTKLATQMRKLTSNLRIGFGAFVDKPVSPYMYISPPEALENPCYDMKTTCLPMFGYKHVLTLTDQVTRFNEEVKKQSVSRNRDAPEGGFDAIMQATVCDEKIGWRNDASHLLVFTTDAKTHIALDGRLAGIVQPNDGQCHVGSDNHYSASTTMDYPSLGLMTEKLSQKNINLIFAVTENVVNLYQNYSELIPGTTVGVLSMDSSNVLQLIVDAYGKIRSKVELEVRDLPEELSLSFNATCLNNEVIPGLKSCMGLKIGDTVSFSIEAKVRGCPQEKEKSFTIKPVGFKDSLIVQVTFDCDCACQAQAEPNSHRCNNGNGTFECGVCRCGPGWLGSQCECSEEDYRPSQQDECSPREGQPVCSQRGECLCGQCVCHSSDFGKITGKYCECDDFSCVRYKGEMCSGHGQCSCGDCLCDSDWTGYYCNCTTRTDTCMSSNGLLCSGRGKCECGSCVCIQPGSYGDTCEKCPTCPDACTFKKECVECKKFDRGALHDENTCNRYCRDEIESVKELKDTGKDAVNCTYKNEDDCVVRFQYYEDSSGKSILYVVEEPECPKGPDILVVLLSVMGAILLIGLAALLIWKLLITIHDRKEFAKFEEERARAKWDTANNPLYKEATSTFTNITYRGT

For the compound Echistatin (from UniProt P17347), the equilibrium dissociation constant (Kd) in data set [1] is 0.3 nM.
On to `CC(C)C[C@@H]1NC(=O)[C@@H]2CSSC[C@@H](C(=O)NCC(N)=O)NC(=O)[C@H](Cc3ccccc3)NC(=O)CNC(=O)[C@H](CC(N)=O)NC(=O)[C@@H]3CCCN3C(=O)CNC(=O)[C@@H]3CSSC[C@H](NC(=O)[C@H](CO)NC(=O)[C@H]([C@@H](C)O)NC(=O)[C@@H]4CCCN4C(=O)[C@H](C)NC(=O)[C@H](Cc4c[nH]c5ccccc45)NC(=O)[C@H](CC(=O)O)NC(=O)CNC(=O)[C@H](CCCNC(=N)N)NC(=O)CNC(=O)[C@H](CCC(N)=O)NC(=O)[C@@H]4CCCN4C(=O)[C@@H](NC(=O)CNC(=O)c4ccc(F)cc4)CSSC[C@H](NC(=O)CNC(=O)[C@H](C)NC1=O)C(=O)N[C@@H](C(C)C)C(=O)N3)C(=O)N[C@@H](CO)C(=O)N[C@@H](CCC(N)=O)C(=O)N[C@@H](CC(=O)O)C(=O)N[C@@H](CO)C(=O)N[C@@H](CC(=O)O)C(=O)N2` [^18F-FB-2.5D] ({Benzoyl(4-F)}-GCPQGRGDWAPTSCSQDSDCLAGCVCGPNGFCG-NH2; disulfide 2-24, 14-26, 20-32; C-terminus assumed), for which, in data set [2], the “activity remaining in tumor at 1 h p.i. compared to 0.5 h” value is reported as 56%. For the same compound, in data set [3], the “radioactivity in blood relative to amount at 3 min p.i.” value was “approximately 9.2%”. Also, the tissue uptake at 0.5 h in data set [4] (blood, blood radioactivity (biodistribution)) was 1.32 ± 0.07 %ID/g; in data set [4] (kidney, kidney uptake (biodistribution)), 4.24 ± 0.19 %ID/g; in data set [4] (liver, liver uptake (biodistribution)) it was 1.38 ± 0.55 %ID/g. Besides, the “inhibition of tumor uptake by co-injection of c(RGDyK)” value in data set [5] is on record as 70%.
With echistatin, the equilibrium dissociation constant (Kd) in data set [6] was roughly 0.3 nM.
